Assay results reported in publication PMC7071076, “Antibacterial Activity and Pharmacokinetic Profile of a Promising Antibacterial Agent: 22-(2-Amino-phenylsulfanyl)-22-Deoxypleuromutilin” (Molecules, 2020).

Key:
MRSA ATCC 43300 [1] = experiment: Constant concentration time-kill curves; format: cell-based, Staphylococcus aureus
Experimental: Time–kill curve experiments were performed in triplicate according previous report. In this experiment, MRSA, in logarithmic phase, was diluted to 10^6 CFU/mL with MH broth. […] The mixtures and control which was free of drug were cultured at 37 °C with shaking. A total of 20 µL aliquots from solutions were serially diluted 10-fold in 0.9% saline, at different time intervals (0, 3, 6, 9, and 24 h). Then the dilutions were plated onto MH agar medium and incubated at 37 °C for 18–24 h. The bacterial colonies were counted, and results were represented as the logarithm of the colony numbers. The time-kill curve was constructed by plotting log CFU/mL versus time.

MRSA ATCC 43300 [2] = experiment: MRSA wound infection model: wound bacterial burden; format: in vivo, mice
Experimental: (§1) Six weeks SPF-ICR female mice were used for this study. The Experimental model, inducted of inflammatory in mice by skin excision, was established referring to existing methods with some alterations. The mice were anesthetized with the intravenous injection of 1% sodium pentobarbital. After their hair on the back was shaved, the mice were anesthetized and the back skin was perforated with a biopsy perforator at a depth of fascia injury. The inoculum (50 μL), containing 10^9 CFU/mL of the indicated microorganism (MRSA ATCC 43300), was applied on the wound for three times at 30 min intervals. 100 μL drug (3 mg/mL) was administrated on the wound at 1 h after inoculation for three consecutive days. A total of 100 μL blank matrix was given to the infected control group and the non-infected group in the same way. The wound was wrapped with sterile gauze. During the treatment, all mice were kept individually and free to eat and drink.
At the end of the examination, mice were anesthetized and killed. Tissue samples, reaching to the muscle membrane, were removed from the middle of the wound surface and homogenized in 0.9% saline. Serially diluted aliquots of homogenate were cultured on high-salt mannitol agar plate at 37 °C for 24 h. The log of the colony number was used for statistical analysis.

TNF-α = experiment: MRSA wound infection model: serum cytokine ELISA; format: in vivo, mice; conditions: three days after treatment (method: 24 h), p < 0.05
Experimental: as §1
(§2) After administration for 24 h, blood samples were collected from the ocular venous plexus and were prepared to serum samples as previously described. The contents of IL-6, TNF-α, and MCP-1 in serum were detected using ELISA kits according to the instruction. All ELISA kits were purchased from Shanghai Enzyme-linked Biotechnology Co., Ltd. (Shanghai, China).

IL-6 = experiment: MRSA wound infection model: serum cytokine ELISA; format: in vivo, mice; conditions: three days after treatment (method: 24 h), p < 0.05
Experimental: as §1, §2

MCP-1 = experiment: MRSA wound infection model: serum cytokine ELISA; format: in vivo, mice; conditions: three days after treatment (method: 24 h), p < 0.05
Experimental: as §1, §2

MRSA ATCC 43300 [3] = experiment: MRSA wound infection model: wound size; format: in vivo, mice; conditions: after treatment for three days; 100 μL drug (3 mg/mL) on the wound
Experimental: as §1
The wounds were examined on day 1 and days 3 after treatment. The area of wound were measured according to previous reports with some modifications. In each group, six mice were taken out and anesthetized to take photos and measure the size of the wound as the results.

With `C=C[C@]1(C)C[C@@H](OC(=O)CSc2ccccc2N)[C@]2(C)[C@H](C)CC[C@]3(CCC(=O)[C@H]32)[C@@H](C)[C@@H]1O` [Amphenmulin, 22-(2-amino-phenylsulfanyl)-22-deoxypleuromutilin] the “colony numbers of MRSA” value (MRSA ATCC 43300 [1]; 0.5×MIC, 3 h) was 7.17±0.08 log CFU/mL, the “colony numbers of MRSA” value (MRSA ATCC 43300 [1]; 0.5×MIC, 6 h) was 7.83±0.16 log CFU/mL and the “colony numbers of MRSA” value (MRSA ATCC 43300 [1]; 0.5×MIC, 9 h) was 8.22±0.15 log CFU/mL. The “colony numbers of MRSA” value (MRSA ATCC 43300 [1]; 0.5×MIC, 24 h) was 8.33±0.10 log CFU/mL, the “colony numbers of MRSA” value (MRSA ATCC 43300 [1]; 1×MIC, 3 h) was 6.84±0.08 log CFU/mL and the “colony numbers of MRSA” value (MRSA ATCC 43300 [1]; 1×MIC, 6 h) was 7.44±0.06 log CFU/mL. For the same compound, the “colony numbers of MRSA” value (MRSA ATCC 43300 [1]; 1×MIC, 9 h) was 7.86±0.13 log CFU/mL, the “colony numbers of MRSA” value (MRSA ATCC 43300 [1]; 1×MIC, 24 h) was 7.70±0.46 log CFU/mL and the “colony numbers of MRSA” value (MRSA ATCC 43300 [1]; 2×MIC, 3 h) was 6.43±0.13 log CFU/mL. The “colony numbers of MRSA” value (MRSA ATCC 43300 [1]; 2×MIC, 6 h) was 6.56±0.23 log CFU/mL, the “colony numbers of MRSA” value (MRSA ATCC 43300 [1]; 2×MIC, 9 h) was 7.07±0.42 log CFU/mL and the “colony numbers of MRSA” value (MRSA ATCC 43300 [1]; 2×MIC, 24 h) was 7.26±0.62 log CFU/mL. The “colony numbers of MRSA” value (MRSA ATCC 43300 [1]; 4×MIC, 3 h) was 5.96±0.66 log CFU/mL, the “colony numbers of MRSA” value (MRSA ATCC 43300 [1]; 4×MIC, 6 h) was 6.13±0.06 log CFU/mL and the “colony numbers of MRSA” value (MRSA ATCC 43300 [1]; 4×MIC, 9 h) was 5.77±0.15 log CFU/mL. The “colony numbers of MRSA” value (MRSA ATCC 43300 [1]; 4×MIC, 24 h) was 4.04±0.58 log CFU/mL, the “colony numbers of MRSA” value (MRSA ATCC 43300 [1]; 8×MIC, 3 h) was 5.91±0.03 log CFU/mL and the “colony numbers of MRSA” value (MRSA ATCC 43300 [1]; 8×MIC, 6 h) was 5.98±0.09 log CFU/mL. The “colony numbers of MRSA” value (MRSA ATCC 43300 [1]; 8×MIC, 9 h) was 5.78±0.09 log CFU/mL, the “colony numbers of MRSA” value (MRSA ATCC 43300 [1]; 8×MIC, 24 h) was 3.55±0.16 log CFU/mL and the “colony numbers of MRSA” value (MRSA ATCC 43300 [1]; 16×MIC, 3 h) was 5.79±0.12 log CFU/mL. The “colony numbers of MRSA” value (MRSA ATCC 43300 [1]; 16×MIC, 6 h) was 5.77±0.15 log CFU/mL, the “colony numbers of MRSA” value (MRSA ATCC 43300 [1]; 16×MIC, 9 h) was 5.64±0.11 log CFU/mL and the “colony numbers of MRSA” value (MRSA ATCC 43300 [1]; 16×MIC, 24 h) was 2.97±0.06 log CFU/mL. The “colony numbers of MRSA” value (MRSA ATCC 43300 [1]; 32×MIC, 3 h) was 5.60±0.18 log CFU/mL, the “colony numbers of MRSA” value (MRSA ATCC 43300 [1]; 32×MIC, 6 h) was 5.91±0.56 log CFU/mL and the “colony numbers of MRSA” value (MRSA ATCC 43300 [1]; 32×MIC, 9 h) was 5.11±0.36 log CFU/mL. For the same compound, the “colony numbers of MRSA” value (MRSA ATCC 43300 [1]; 32×MIC, 24 h) was 2.43±0.67 log CFU/mL, the “type of antibacterial activity in time-kill curve” value (MRSA ATCC 43300 [1]; at the concentration of 4× MIC) was “bacteriostatic activity” and the “number of bacteria in wound tissue vs infected group” value (MRSA ATCC 43300 [2]; one day after treatment, p < 0.05) was “significant decrease”. The “number of bacteria in wound tissue” value (MRSA ATCC 43300 [2]; three days after treatment, 100 μL drug (3 mg/mL) on the wound) was 4.47 ± 0.66 log10 CFU/mL, the “TNF-α in the serum vs infection group” value (TNF-α) was “significantly decreased” and the “IL-6 in the serum vs infection group” value (IL-6) was “significantly decreased”. For the same compound, the “MCP-1 in the serum vs infection group” value (MCP-1) was “significantly decreased” and the wound area (MRSA ATCC 43300 [3]) was 0.47 ± 0.09 cm^2.
